These results are taken from ChEMBL document CHEMBL3826959, “Modification of existing antibiotics in the form of precursor prodrugs that can be subsequently activated by nitroreductases of the target pathogen” (Bioorg Med Chem Lett, 2016).

In brackets after ≈: the same amount, converted by molar mass. Activity calls are given as the source filed them. No cut-off for these calls is given here.

A short description of data set [1]: Stability of the compound. Format: physicochemical.
Data set [2] in a line: Drug level assessed as Staphylococcus saprophyticus ATCC 15305 nitroreductase B mediated compound formation using 130 uM NO2-SMX measured after 200 mins in presence of NADPH-cofactor generating system by LC-MS/MS analysis. Format: ADME. Particulars: isolated protein.
Data set [3] deals with Staphylococcus saprophyticus. Kind of data set: Antibacterial activity against Staphylococcus saprophyticus ATCC 15305 measured after 18 hrs by broth dilution method. The class given is functional. To be noted: ATCC 15305, 18 h. Background: In broth dilution the organism is exposed to a series of concentrations in liquid medium.
Data set [4] deals with Staphylococcus saprophyticus. Nature of the data set: Antibacterial activity against Staphylococcus saprophyticus ATCC 15305 measured after 18 hrs by agar dilution method. The class given is functional. To be noted: ATCC 15305, 18 h. For orientation: In agar dilution, organisms are placed on agar that contains the substance at set levels.
The subject of data set [5] is Staphylococcus saprophyticus. Kind of data set: Antibacterial activity against Staphylococcus saprophyticus ATCC 15305 assessed as zone of inhibition at 51 ug/disc measured after 16 to 24 hrs by agar diffusion method. The class given is functional. To be noted: read-out: DIZ.
For data set [6], the system named is Staphylococcus saprophyticus. Nature of the data set: Antibacterial activity against Staphylococcus saprophyticus ATCC 15305 assessed as bacterial survival measured after 18 hrs by broth dilution method. The class given is functional.
Data set [7] in a line: Prodrug activation assessed as Staphylococcus saprophyticus ATCC 15305 nitroreductase B mediated […] at 130 uM measured after 200 mins in presence of NADPH-cofactor generating system by LC-MS/MS analysis. Particulars: isolated protein.
A short description of data set [8]: Prodrug activation assessed as Staphylococcus saprophyticus ATCC 15305 nitroreductase B mediated N-OH-sulfamethoxazole formation at 130 uM measured after 200 mins in presence of NADPH-cofactor generating system by LC-MS/MS analysis. To be noted: isolated protein.
The nature of data set [9]: Prodrug activation assessed as Staphylococcus saprophyticus ATCC 15305 nitroreductase B mediated […] at 2 mM in presence of NADPH-cofactor generating system by ESI-MS analysis. Particulars: isolated protein, 2000 µM.
Data set [10] in a line: Drug level assessed as Staphylococcus saprophyticus ATCC 15305 nitroreductase B mediated compound formation using at 2 mM NO2-SMX 2 mM in presence of NADPH-cofactor generating system by ESI-MS analysis. The class given is ADME. Particulars: isolated protein, 2000 µM.
Data set [11] concerns Staphylococcus saprophyticus. Nature of the data set: Activity at Staphylococcus saprophyticus ATCC 15305 nitroreductase B by UV-vis spectrophotometry based Michaelis-Menten plot analsysis.
Data set [12] is described as follows: Prodrug activation assessed as Staphylococcus saprophyticus ATCC 15305 nitroreductase B mediated sulfamethoxazole formation at 130 uM measured after 200 mins in presence of NADPH-cofactor generating system by LC-MS/MS analysis. To be noted: isolated protein.
Data set [13] in a line: Prodrug activation assessed as Staphylococcus saprophyticus ATCC 15305 nitroreductase B mediated N-OH-sulfamethoxazole formation at 2 mM in presence of NADPH-cofactor generating system by ESI-MS analysis. Particulars: isolated protein, 2000 µM.
A short description of data set [14]: Prodrug activation assessed as Staphylococcus saprophyticus ATCC 15305 nitroreductase B mediated sulfamethoxazole formation at 2 mM in presence of NADPH-cofactor generating system by ESI-MS analysis. To be noted: isolated protein, 2000 µM.
In data set [15] the test system is Staphylococcus saprophyticus. Kind of data set: Antibacterial activity against Staphylococcus saprophyticus ATCC 15305 assessed as zone of inhibition at 57 ug/disc measured after 16 to 24 hrs by agar diffusion method. Format: functional. In general terms: A growth-free zone around the sample is the usual read-out of agar diffusion tests.
In data set [16] the test system is Staphylococcus saprophyticus. Nature of the data set: Antibacterial activity against Staphylococcus saprophyticus ATCC 15305 assessed as zone of inhibition at 54 ug/disc measured after 16 to 24 hrs by agar diffusion method. Format: functional. Particulars: read-out: DIZ.
Data set [17] deals with Staphylococcus saprophyticus. Kind of data set: microbe, parasite or virus in culture. Particulars: ATCC 15305, read-out: DIZ.
Description: Antibacterial activity against Staphylococcus saprophyticus ATCC 15305 assessed as zone of inhibition at 300 ug/disc measured after 16 to 24 hrs by agar diffusion method

On to `Cc1cc(NS(=O)(=O)c2ccc(N=O)cc2)no1`, for which, in [1], the Stability entry is “Unstable”. Besides, the Drug metabolism result in data set [2] was “metabolite_detected”.
One may read the MIC as the lowest concentration that inhibits growth of the organism. Lower therefore signals a more susceptible organism. As for `NC(=O)N/N=C/c1ccc([N+](=O)[O-])o1` [NITROFURAZONE], the values for the MIC in data set [3] and in [4] were 32 µg/mL (≈ 0.162 mM) and 128 µg/mL (≈ 0.646 mM), respectively.
For the molecule `Cc1cc(NS(=O)(=O)c2ccc(N)cc2)no1` [SULFAMETHOXAZOLE], the minimal inhibitory concentration (MIC) worked out at 4100 µg/mL (≈ 16.2 mM) in [3] and 2050 µg/mL (≈ 8.09 mM) in data set [4]. Also, the zone of inhibition at 51 µg/disc in data set [5] came to 16 mm. Moreover, in data set [6], the Activity was found to be 12%. For the same molecule, the Drug metabolism entry in [2] is listed as “metabolite_detected”.
Usually Km stands for the concentration of substrate that gives half-maximal velocity. By kcat is commonly meant the number of substrate molecules converted per active site and unit of time at saturation. Regarding `Cc1cc(NS(=O)(=O)c2ccc([N+](=O)[O-])cc2)no1`, the Drug metabolism result in data set [7], in data set [8], in [9], in data set [10], in data set [12] and in data set [13] was “metabolite_detected” each time. Besides, in data set [14], the Drug metabolism result was “metabolite_notdetected”. The MIC in data set [3] and in data set [4] was 2050 µg/mL (≈ 7.23 mM) in each case. Besides, the Km in data set [11] worked out at 92.6 µM. Besides, in [11], the kcat stood at 2.95 s⁻¹. In addition, the “diameter of the inhibition zone (DIZ)” value in [15] was “inactive”.
With `Cc1cc(NS(=O)(=O)c2ccc(NO)cc2)no1`, 2050 µg/mL (≈ 7.61 mM) was the least that counted as inhibitory in data set [3] (MIC). The zone of inhibition at 54 µg/disc in data set [16] was found to be 10 mm. For the same molecule, the Drug metabolism result in data set [2] was “metabolite_detected”.
For the molecule `O=C1CN(/N=C/c2ccc([N+](=O)[O-])o2)C(=O)N1` [NITROFURANTOIN], the MIC in data set [3] and in [4] was 8 µg/mL (≈ 0.0336 mM) in each case. The zone of inhibition at 300 µg/disc in [17] was 18 mm.
